Measured values from patent publication US20070032505A1, “Crystalline form of gatifloxacin” (priority 2003, published 2007).
Where “and” joins values, the source holds several entries; their conditions need not be identical. Equal values may be shown once.

Legend:
[1] = stability test: water content (Karl-Fischer) and powder X-ray diffractogram in contact with the atmosphere at room temperature; format: physicochemical
Description: The new crystalline form of gatifloxacin which is obtainable by this process has an initial water content ranging between 0.8 and 1.6% and stabilises with a water content ranging between 2.5 and 4.5% by weight, when it is in contact with the atmosphere at room temperature and with a relative humidity comprised between 20 and 70%, and it remains stable for at least 2 months in such conditions.
The crystalline form of gatifloxacin object of the present invention is characterized by its powder X-ray diffractogram (FIG. 1), ^13C nuclear magnetic resonance spectrum (FIG. 3) and analysis of water content by the Karl-Fischer method.
For recording the powder X-ray diffractograms a PHILIPS X'Pert automatic diffractometer equipped with a Cu tube and a graphite secondary monochromator of the following technical specifications was used: • Cu wavelength Kα: 1.5419 Å; • receiving slit: 0.1 mm; • Soller: 0.04 radians; • dispersion slit and divergence slit: 1°
The tube worked at 40 kV and 50 mA. Sweeping was carried out continuously in the 2θ interval between 5 and 40° with pass of 0.03° and 1-second pass time.

[2] = disintegration and dissolution rate properties; format: physicochemical; details: form containing between 2.5 and 4.5% of water by weight

With `COc1c(N2CCNC(C)C2)c(F)cc2c(=O)c(C(=O)O)cn(C3CC3)c12` (centres unmarked) [form I gatifloxacin, 1-cyclopropyl-6-fluoro-1,4-dihydro-ε-methoxy-7-(3-methyl-1-piperazinyl)-4-oxo-3-quinolinecarboxylic acid] the “% water by weight” value ([1]; 3 hours, room temperature, in contact with the atmosphere) was 2.2 % by weight, the “% water by weight” value ([1]; 6 hours, room temperature, in contact with the atmosphere) was 2.3 % by weight and the “% water by weight” value ([1]; 3 days, room temperature, in contact with the atmosphere) was 3.22 % by weight and 3.2 % by weight. The “% water by weight” value ([1]; 13 days, room temperature, in contact with the atmosphere) was 2.9 % by weight, the “% water by weight” value ([1]; 17 days, room temperature, in contact with the atmosphere) was 3.0 % by weight and the “% water by weight” value ([1]; 68 days, room temperature, in contact with the atmosphere) was 3.3 % by weight. The “period of time to stabilise” value ([1]; longer if relative humidity lower than 20%) was “three”, the “powder X-ray diffractogram over the stability test period” value ([1]; room temperature, in contact with the atmosphere, up to 68 days) was “remains substantially unchanged” and the “time the water content remains stable” value ([1]; room temperature, relative humidity between 20 and 70%) was “at least 2 months”. The “% water by weight” value ([1]; time 0 (at the time of taking it out of the desiccator)) was 1.5 % by weight and the “properties of disintegration and dissolution rate” value [2] was “excellent”.
